This is an account of results in patent US20140274688A1, “MOLECULES HAVING CERTAIN PESTICIDAL UTILITIES, AND INTERMEDIATES, COMPOSITIONS, AND PROCESSES RELATED THERETO” (DOW AGROSCIENCES LLC, priority 2013, published 2014).

The structures appear in SMILES notation.

For data set [1], the system named is Cabbage Looper (Trichoplusia ni) ("CL"). Nature of the data set: Bioassay on Cabbage Looper (CL), 128-well diet tray assay, percent mortality. It is filed as in vivo. Conditions: for CL rating (percent mortality class): Cabbage Looper, 128-well diet tray assay; for pest or weed control at 50 µg/cm2: Trichoplusia ni, read-out: CL. An outline of the steps: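 Larvae held in covered diet trays at 25 °C, 14:10 light-dark, for five to seven days. Percent mortality scored per well and averaged over eight wells.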

Data set [2] concerns Beet Armyworm (Spodoptera exigua) ("BAW"). The experiment in a line: Bioassay on Beet Armyworm (BAW), 128-well diet tray assay, percent mortality. Type of data set: in vivo. Conditions: for BAW rating (percent mortality class): Beet Armyworm, 128-well diet tray assay; for pest or weed control at 50 µg/cm2: Spodoptera exigua, read-out: BAW. The gist of the method:
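Larvae in covered diet trays held at 25 °C, 14:10 light-dark, for five to seven days. Percent mortality scored per well and averaged over eight wells per treatment.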

The subject of data set [3] is Green Peach Aphid ("GPA") (Myzus persicae). Nature of the data set: Bioassay on Green Peach Aphid (GPA), foliar spray on cabbage seedlings, corrected % control. Type of data set: in vivo. Conditions: for GPA rating (corrected % control class): foliar spray on cabbage seedlings; for GPA: Table ABC (P), rating of corrected % control.
The test system of data set [4] is Yellow Fever Mosquito "YFM" (Aedes aegypti). Conditions: for YFM rating (mortality class): Yellow Fever Mosquito larvae, 96-well plates; for YFM: Table ABC (P), rating of mortality, Yellow Fever Mosquito.

On to `Cc1ccc(C(C)C)c(N2C(=O)CS/C2=N\C(=O)NCCc2ccc(-c3ncn(-c4ccc(OC(F)(F)F)cc4)n3)cc2)c1` [F5, (Z)-1-(3-(2-isopropyl-5-methylphenyl)-4-oxothiazolidin-2-ylidene)-3-(4-(1-(4-(trifluoromethoxy)phenyl)-1H-1,2,4-triazol-3-yl)phenethyl)urea], for which the “CL rating (percent mortality class)” value in data set [1] is given as “A (50-100)”. Moreover, the “BAW rating (percent mortality class)” value in data set [2] is “A (50-100)”. The “GPA rating (corrected % control class)” value in data set [3] is “A (80-100)”. For the same molecule, the “YFM rating (mortality class)” value in data set [4] is on record as “A (80-100)”.
Consider `Cc1ccc(C(C)C)c(N2C(=O)CS/C2=N\C(=O)NCCCCc2ccc(-c3ncn(-c4ccc(C(F)(F)F)cc4)n3)cc2)c1` [P159, (Z)-1-(3-(2-isopropyl-5-methylphenyl)-4-oxothiazolidin-2-ylidene)-3-(4-(4-(1-(4-(trifluoromethyl)phenyl)-1H-1,2,4-triazol-3-yl)phenyl)butyl)urea], for which the pest or weed control at 50 µg/cm2 in data set [1] and in data set [2] was 50 to 100% in each case. Further, in data set [3], the GPA result is “B (More than 0-Less than 80)”. In data set [4], the YFM entry was “A (80-100)”.
On to `CC(Cc1ccc(-c2ncn(-c3ccc(OC(F)(F)F)cc3)n2)cc1)NC(=O)/N=C1\SCC(=O)N1c1ccccc1C(C)C` (stereo not shown) [F7, (Z)-1-(3-(2-isopropylphenyl)-4-oxothiazolidin-2-ylidene)-3-(1-(4-(1-(4-(trifluoromethoxy)phenyl)-1H-1,2,4-triazol-3-yl)phenyl)propan-2-yl)urea], for which, in data set [1], the “CL rating (percent mortality class)” value is reported as “A (50-100)”. Besides, the “BAW rating (percent mortality class)” value in data set [2] is reported as “A (50-100)”. Further, the “GPA rating (corrected % control class)” value in data set [3] is “B (More than 0-Less than 80)”. Besides, the “YFM rating (mortality class)” value in data set [4] is reported as “A (80-100)”.
On to `COc1ccc(C(C)C)c(N2C(=O)CS/C2=N\C(=O)NCCc2ccc(-c3ncn(-c4ccc(OC(F)(F)F)cc4)n3)cc2)c1` [F6, (Z)-1-(3-(2-isopropyl-5-methoxyphenyl)-4-oxothiazolidin-2-ylidene)-3-(4-(1-(4-(trifluoromethoxy)phenyl)-1H-1,2,4-triazol-3-yl)phenethyl)urea], for which, in data set [1], the “CL rating (percent mortality class)” value was “A (50-100)”. Further, the “BAW rating (percent mortality class)” value in data set [2] is given as “A (50-100)”. In addition, the “GPA rating (corrected % control class)” value in data set [3] was “B (More than 0-Less than 80)”. Further, the “YFM rating (mortality class)” value in data set [4] was “A (80-100)”.
Turning to `CC(C)c1cccc(N2C(=O)CS/C2=N\C(=O)NCCc2ccc(-c3ncn(-c4ccc(OC(F)(F)F)cc4)n3)cc2)c1` [P51, (Z)-1-(3-(3-isopropylphenyl)-4-oxothiazolidin-2-ylidene)-3-(4-(1-(4-(trifluoromethoxy)phenyl)-1H-1,2,4-triazol-3-yl)phenethyl)urea], the pest or weed control at 50 µg/cm2 in data set [1] and in data set [2] was 50 to 100% throughout. Moreover, the GPA result in data set [3] is listed as “B (More than 0-Less than 80)”. Moreover, the YFM result in data set [4] is reported as “A (80-100)”.
In the case of `Cc1ccc(C(C)C)c(N2C(=O)CS/C2=N\C(=O)NCC(C)c2ccc(-c3ncn(-c4ccc(OC(F)(F)F)cc4)n3)cc2)c1` (stereo not shown) [F10, (Z)-1-(3-(2-isopropyl-5-methylphenyl)-4-oxothiazolidin-2-ylidene)-3-(2-(4-(1-(4-(trifluoromethoxy)phenyl)-1H-1,2,4-triazol-3-yl)phenyl)propyl)urea], the “CL rating (percent mortality class)” value in data set [1] is recorded as “A (50-100)”. Also, in data set [2], the “BAW rating (percent mortality class)” value was “A (50-100)”. Besides, in data set [3], the “GPA rating (corrected % control class)” value is “B (More than 0-Less than 80)”. Besides, the “YFM rating (mortality class)” value in data set [4] is “A (80-100)”.
Consider `COc1cc(C)c(N2C(=O)CS/C2=N\C(=O)NCCc2ccc(-c3ncn(-c4ccc(OC(F)(F)F)cc4)n3)cc2)c(C)c1` [P47, (Z)-1-(3-(4-methoxy-2,6-dimethylphenyl)-4-oxothiazolidin-2-ylidene)-3-(4-(1-(4-(trifluoromethoxy)phenyl)-1H-1,2,4-triazol-3-yl)phenethyl)urea], for which the pest or weed control at 50 µg/cm2 in data set [1] and in data set [2] was 50 to 100% in each case. In addition, the YFM entry in data set [4] is on record as “A (80-100)”.
`CC(C)c1cc(F)ccc1N1C(=O)CS/C1=N\C(=O)NCCc1ccc(-c2ncn(-c3ccc(OC(F)(F)F)cc3)n2)cc1` [P28, (Z)-1-(3-(4-fluoro-2-isopropylphenyl)-4-oxothiazolidin-2-ylidene)-3-(4-(1-(4-(trifluoromethoxy)phenyl)-1H-1,2,4-triazol-3-yl)phenethyl)urea]: the pest or weed control at 50 µg/cm2 in data set [1] and in data set [2] was 50 to 100% throughout. In addition, the YFM result in data set [4] is on record as “A (80-100)”.
Consider `Cc1ccc(C(C)C)c(N2C(=O)CS/C2=N\C(=O)NCCC#Cc2ccc(-c3ncn(-c4ccc(OC(F)(F)F)cc4)n3)cc2)c1` [P160, (Z)-1-(3-(2-isopropyl-5-methylphenyl)-4-oxothiazolidin-2-ylidene)-3-(4-(4-(1-(4-(trifluoromethoxy)phenyl)-1H-1,2,4-triazol-3-yl)phenyl)but-3-yn-1-yl)urea], for which the pest or weed control at 50 µg/cm2 in data set [1] and in data set [2] was 50 to 100% throughout. Besides, the YFM entry in data set [4] is “B (More than 0-Less than 80)”.
In the case of `Cc1ccc(N2C(=O)CS/C2=N\C(=O)NCCc2ccc(-c3ncn(-c4ccc(OC(F)(F)F)cc4)n3)cc2)c(C(C)C)c1` [P26, (Z)-1-(3-(2-isopropyl-4-methylphenyl)-4-oxothiazolidin-2-ylidene)-3-(4-(1-(4-(trifluoromethoxy)phenyl)-1H-1,2,4-triazol-3-yl)phenethyl)urea], the pest or weed control at 50 µg/cm2 in data set [1] and in data set [2] was 50 to 100% throughout. In addition, the YFM entry in data set [4] is listed as “A (80-100)”.
For the molecule `CCc1cc(C)ccc1N1C(=O)CS/C1=N\C(=O)NCCc1ccc(-c2ncn(-c3ccc(OC(F)(F)F)cc3)n2)cc1` [P31, (Z)-1-(3-(2-ethyl-4-methylphenyl)-4-oxothiazolidin-2-ylidene)-3-(4-(1-(4-(trifluoromethoxy)phenyl)-1H-1,2,4-triazol-3-yl)phenethyl)urea], the pest or weed control at 50 µg/cm2 in data set [1] and in data set [2] was 50 to 100% each time. Moreover, the YFM entry in data set [4] is “A (80-100)”.
For the molecule `CC(C)c1ccccc1NC(=S)NC(=O)NCCc1ccc(-c2ncn(-c3ccc(OC(F)(F)F)cc3)n2)cc1` [F2, N-[2-isopropylphenyl]-N-[2-(4-{1-[4-(trifluoromethoxy)phenyl]-1H-1,2,4-triazol-3-yl}phenyl)ethyl]dicarbonimidothioic diamide], the “CL rating (percent mortality class)” value in data set [1] was “A (50-100)”. In addition, the “BAW rating (percent mortality class)” value in data set [2] was “A (50-100)”. Also, the “GPA rating (corrected % control class)” value in data set [3] is reported as “B (More than 0-Less than 80)”. Further, the “YFM rating (mortality class)” value in data set [4] is reported as “A (80-100)”.
